Data on 3 molecules can be found in patent US6348570B1, “Chromophore containing compounds and their use in determining interleukin-1β convertase activity” (Merck & Co., Inc., priority 1991, dated 2002).

Starred links: 1 amine or outer side, 2 acyl side, 3 side chain; linkers in the order of their positions; H or OH if unused. Non-standard residues stand in square brackets, D forms with d. Residues, ends and D or L forms follow the SMILES beside them. No end group written: not given here. *: point of attachment. 3‑amino‑4‑oxobutanoic acid = aspartic acid with its alpha-carboxyl as an aldehyde, O=C[C@H](CC(=O)[*:3])N[*:1]; AMC = Cc1cc(=O)oc2cc(N*)ccc12

The target of data set [1] is T1, Interleukin-1β convertase (ICE), DEAE-purified THP-1 cell lysate (Homo sapiens, UniProt P29466).
T1 sequence (P29466 120-297 limits assumed): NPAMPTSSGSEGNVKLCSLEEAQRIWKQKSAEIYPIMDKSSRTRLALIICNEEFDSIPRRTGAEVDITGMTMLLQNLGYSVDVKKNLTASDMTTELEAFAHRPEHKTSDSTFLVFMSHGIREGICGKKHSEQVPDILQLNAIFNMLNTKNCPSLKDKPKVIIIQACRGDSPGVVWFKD
T1 sequence (P29466 317-404 limits assumed): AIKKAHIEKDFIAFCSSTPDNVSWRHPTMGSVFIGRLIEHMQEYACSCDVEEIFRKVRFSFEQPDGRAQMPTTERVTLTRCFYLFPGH
The experiment in a line: Coupled fluorometric ICE assay with leucine aminopeptidase (LAPM). The data set is classed as biochemical. More on the design: Activity of DEAE-purified THP-1 cell lysate; endogenous in cells; host or cells: THP-1 cells; cytosolic extract fractionated on a DEAE-5PW HPLC column. Particulars: 25° C. The protocol:
Coupled Assay: Interleukin 1β activity of Activity of DEAE-purified THP-1 cell lysate.
At 25° C., 5 μl of substrate 5 μl of LAPM, 5 μl of ICE were added to […] of buffer.
Reaction is monitored continuously in a Gilford Fluoro-IV Spectrofluorometer. excitation wavelength=380 nm emission wavelength=460 nm 1 uM AMC=100% relative fluoroescence

In data set [2] the target is T1, Interleukin-1β convertase (ICE), DEAE-purified THP-1 cell lysate. The data set is classed as biochemical. On the set-up: Activity of DEAE-purified THP-1 cell lysate; endogenous in cells; host or cells: THP-1 cells; cytosolic extract fractionated on a DEAE-5PW HPLC column. Conditions: pH 7.5. As to the method:
[table] At 25° C., 5 μl of substrate 5 μl of enzyme and 5 μl of sample were added to 485 μl of Buffer as defined above. Liberation of AMC was monitored using a Gilford Fluoro IV Spectrofluorometer using an excitation wavelength of 380 nm and an emmission wavelength of 460 nm. 1 μM AMC=100% relative fluorescence.

For data set [3], the target named is T2, Interleukin-1β convertase (ICE) (UniProt P29466 120-297; P29466 317-404, limits assumed).
T2 sequence (looked up) 1: T1 sequence (P29466 120-297 limits assumed)
T2 sequence (looked up) 2: T1 sequence (P29466 317-404 limits assumed)
The experiment in a line: cell-based or functional assay.

Regarding `CC(=O)N[C@@H](Cc1ccc(O)cc1)C(=O)N[C@H](C(=O)N[C@@H](C)C(=O)N[C@@H](CC(=O)O)C(=O)NCC(=O)Nc1ccc2c(C)cc(=O)oc2c1)C(C)C` [Ac-Tyr-Val-Ala-Asp-Gly-AMC, N-(N-Acetyl-tyrosinyl-valinyl-alaninyl-aspartyl-glycinyl)-7-amino-4-methylcoumarin] (Ac-YVADG-{AMC}), the “velocity of the steady state reaction” value in data set [1] (5 μl substrate, 5 μl LAPM, 5 μl ICE, pH 7.5) turned out to be 0.05 uM AMC/min. Moreover, in data set [1] (determined by amount of coupling enzyme LAPM (5 μl of 12.5 units/ml)), the “rate constant that describes the approach to steady state (lag phase)” value turned out to be 0.44 ± 0.01 min⁻¹.
As for `CC(=O)N[C@@H](Cc1ccc(O)cc1)C(=O)N[C@H](C(=O)N[C@@H](C)C(=O)NC(C=O)CC(=O)O)C(C)C` (stereo partly drawn) [Compound Z, N-(N-acetyl-tyrosinyl-valinyl-alaninyl)-3-amino-4-oxo butanoic acid], in data set [2] (5 μl of 2 μM sample in 500 μl, 25° C.), the “rate constant for inhibition” value was 0.25 min⁻¹. Moreover, in data set [2], the “half-life for the slow onset of inhibition” value was determined as 2.7 min. Besides, the type of inhibition entry in data set [2] (substrate Ac-Tyr-Val-Ala-Asp-AMC, 25° C.) is “slow, tight-binding inhibitor”.
For the molecule Ac-YVA[3‑amino‑4‑oxobutanoic acid] [compound Z (i.e. N-(N-acetyl-tyrosinyl-valinyl-alaninyl)-3-amino-4-oxo butanoic acid)], the “half-life for the slow onset of inhibition” value in data set [3] is 2.7 min.
